{"source": "patent US7772265B2", "about": "“2-oxadiazolechromone derivatives” (Merck Patent GmbH, priority 2002, dated 2010)", "key": {"PKB": {"biological_target": "PKB (Homo sapiens, UniProt P31749)", "sequence (P31749 whole entry, species assumed)": "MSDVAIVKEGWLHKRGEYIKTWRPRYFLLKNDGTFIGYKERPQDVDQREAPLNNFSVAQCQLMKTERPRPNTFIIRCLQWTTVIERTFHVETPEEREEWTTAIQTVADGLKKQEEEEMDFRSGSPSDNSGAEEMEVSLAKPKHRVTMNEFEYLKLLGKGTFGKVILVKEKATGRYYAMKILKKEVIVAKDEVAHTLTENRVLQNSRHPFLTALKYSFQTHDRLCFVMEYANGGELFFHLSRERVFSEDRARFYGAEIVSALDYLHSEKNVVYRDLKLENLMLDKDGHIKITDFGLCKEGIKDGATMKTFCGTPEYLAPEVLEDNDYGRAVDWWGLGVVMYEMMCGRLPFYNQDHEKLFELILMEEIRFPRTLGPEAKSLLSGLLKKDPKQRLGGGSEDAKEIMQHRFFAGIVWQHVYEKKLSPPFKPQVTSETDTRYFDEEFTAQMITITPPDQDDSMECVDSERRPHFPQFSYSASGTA", "test": "PKB inhibition (comparative measurement)", "assay_type": "biochemical", "conditions": "read-out: IC50 PKB inhibitor"}, "Tie2": {"biological_target": "Tie2 (Homo sapiens, UniProt Q02763)", "sequence (Q02763 23-1124, species assumed)": "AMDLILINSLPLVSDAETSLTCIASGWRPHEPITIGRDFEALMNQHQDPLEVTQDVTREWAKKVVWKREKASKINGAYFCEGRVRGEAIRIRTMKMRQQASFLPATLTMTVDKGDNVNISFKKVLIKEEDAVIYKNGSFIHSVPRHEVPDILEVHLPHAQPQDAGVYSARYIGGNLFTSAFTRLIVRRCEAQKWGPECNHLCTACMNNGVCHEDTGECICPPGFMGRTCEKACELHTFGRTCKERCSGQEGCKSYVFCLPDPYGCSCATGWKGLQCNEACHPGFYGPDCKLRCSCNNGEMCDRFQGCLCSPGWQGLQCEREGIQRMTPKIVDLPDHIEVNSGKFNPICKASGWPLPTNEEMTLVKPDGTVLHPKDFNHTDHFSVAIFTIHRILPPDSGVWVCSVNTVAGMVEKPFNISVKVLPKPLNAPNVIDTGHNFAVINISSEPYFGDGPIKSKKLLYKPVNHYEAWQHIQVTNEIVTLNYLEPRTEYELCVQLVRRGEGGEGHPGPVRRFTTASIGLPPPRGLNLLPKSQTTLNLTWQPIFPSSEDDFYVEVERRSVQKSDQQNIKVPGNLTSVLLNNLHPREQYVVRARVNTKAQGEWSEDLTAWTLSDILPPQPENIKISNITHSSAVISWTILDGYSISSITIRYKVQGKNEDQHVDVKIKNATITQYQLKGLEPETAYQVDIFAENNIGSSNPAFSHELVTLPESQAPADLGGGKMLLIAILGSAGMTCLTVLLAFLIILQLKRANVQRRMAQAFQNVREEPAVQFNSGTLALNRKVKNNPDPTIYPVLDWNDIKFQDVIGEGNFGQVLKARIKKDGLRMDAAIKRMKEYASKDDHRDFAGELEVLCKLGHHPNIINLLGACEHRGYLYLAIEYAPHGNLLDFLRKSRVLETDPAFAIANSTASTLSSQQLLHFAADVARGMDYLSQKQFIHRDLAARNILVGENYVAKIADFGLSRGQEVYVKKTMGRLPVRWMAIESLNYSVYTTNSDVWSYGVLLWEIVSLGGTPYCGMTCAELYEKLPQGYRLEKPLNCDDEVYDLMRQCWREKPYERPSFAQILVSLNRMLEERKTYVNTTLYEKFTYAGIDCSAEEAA", "test": "Tie2 inhibition", "assay_type": "biochemical", "conditions": "read-out: IC50 Tie2 inhibitor"}}}
{"smiles": "CC(C)(C)c1ccc(-c2noc(-c3cc(=O)c4cc(O)ccc4o3)n2)cc1", "note": "[6-hydroxy-2-[3-(4-tert-butylphenyl)-1,2,4-oxadiazol-5-yl]-chromone]", "values": [{"measurement": "IC50", "setting": "PKB", "result": "> 30", "unit": "µM"}, {"measurement": "IC50", "setting": "Tie2", "result": "≥ 10", "unit": "µM"}]}
